Assay results reported in the supplement of paper PMC10307832.

Key:
Assay in all cases: relative viability (nuclei count vs DMSO), 5 days (fraction); higher = more cells survive
Etoposide + OSI-027 = compound: COc1cc([C@@H]2c3cc4c(cc3[C@@H](O[C@@H]3O[C@@H]5CO[C@@H](C)O[C@H]5[C@H](O)[C@H]3O)[C@H]3COC(=O)[C@H]23)OCO4)cc(OC)c1O [Etoposide] + COc1cccc2cc(-c3nc([C@H]4CC[C@H](C(=O)O)CC4)n4ncnc(N)c34)[nH]c12 [OSI-027] (partner 0.5 µM)
In short: (§1)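 Nuclei were stained with Hoechst during a one-step fixation (final 0.05% Triton X-100, 1% formaldehyde, 1 ug/ml Hoechst) carried out 5 days after dosing, then counted on 4× images. The cells, lung cancer lines in 1536-well plates, had been dosed by pin tool the day after seeding with one drug alone or a fixed anchor-drug dose plus five library-drug doses (not always all listed) in √10 steps. Relative viability is the nuclei count in treated wells divided by that in vehicle wells, and each value is the median of duplicate plates.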

Etoposide + Palbociclib = compound: COc1cc([C@@H]2c3cc4c(cc3[C@@H](O[C@@H]3O[C@@H]5CO[C@@H](C)O[C@H]5[C@H](O)[C@H]3O)[C@H]3COC(=O)[C@H]23)OCO4)cc(OC)c1O [Etoposide] + CC(=O)c1c(C)c2cnc(Nc3ccc(N4CCNCC4)cn3)nc2n(C2CCCC2)c1=O [Palbociclib] (partner 0.5 µM)
In short: as §1

Bleomycin + Luminespib = compound: CC1=C(N=C(N=C1N)[C@H](CC(=O)N)NC[C@@H](C(=O)N)N)C(=O)N[C@@H]([C@H](C2=CN=CN2)OC3C(C(C(C(O3)CO)O)O)OC4C(C(C(C(O4)CO)O)OC(=O)N)O)C(=O)N[C@H](C)[C@H]([C@H](C)C(=O)N[C@@H]([C@@H](C)O)C(=O)NCCC5=NC(=CS5)C6=NC(=CS6)C(=O)NCCC[S+](C)C)O [Bleomycin] + CCNC(=O)c1noc(-c2cc(C(C)C)c(O)cc2O)c1-c1ccc(CN2CCOCC2)cc1 [Luminespib] (partner 0.01 µM); details: main component drawn
In short: as §1

Etoposide + Vorinostat = compound: COc1cc([C@@H]2c3cc4c(cc3[C@@H](O[C@@H]3O[C@@H]5CO[C@@H](C)O[C@H]5[C@H](O)[C@H]3O)[C@H]3COC(=O)[C@H]23)OCO4)cc(OC)c1O [Etoposide] + O=C(CCCCCCC(=O)Nc1ccccc1)NO [Vorinostat] (partner 1 µM)
In short: as §1

UMC-11 gave a relative viability (Etoposide + OSI-027; first compound 0.01 µM) of 0.443, a relative viability (Etoposide + OSI-027; first compound 0.03162 µM) of 0.544 and a relative viability (Etoposide + OSI-027; first compound 0.1 µM) of 0.299. For the same cell line, the relative viability (Etoposide + OSI-027; first compound 0.3162 µM) was 0.431, the relative viability (Etoposide + OSI-027; first compound 1 µM) was 0.3 and the relative viability (Etoposide + Palbociclib; first compound 0.01 µM) was 0.327. It also gave a relative viability (Etoposide + Palbociclib; first compound 0.03162 µM) of 0.308, a relative viability (Etoposide + Palbociclib; first compound 0.1 µM) of 0.312 and a relative viability (Etoposide + Palbociclib; first compound 0.3162 µM) of 0.313. For the same cell line, the relative viability (Etoposide + Palbociclib; first compound 1 µM) was 0.298, the relative viability (Bleomycin + Luminespib; first compound 0.01 µM) was 0.914 and the relative viability (Bleomycin + Luminespib; first compound 0.03162 µM) was 1.05. For the same cell line, the relative viability (Bleomycin + Luminespib; first compound 0.1 µM) was 0.893, the relative viability (Bleomycin + Luminespib; first compound 0.3162 µM) was 0.65 and the relative viability (Bleomycin + Luminespib; first compound 1 µM) was 0.539. The relative viability (Etoposide + Vorinostat; first compound 0.01 µM) was 0.373, the relative viability (Etoposide + Vorinostat; first compound 0.03162 µM) was 0.376 and the relative viability (Etoposide + Vorinostat; first compound 0.1 µM) was 0.323. It also gave a relative viability (Etoposide + Vorinostat; first compound 0.3162 µM) of 0.228 and a relative viability (Etoposide + Vorinostat; first compound 1 µM) of 0.199.
